Measured values published in PubChem BioAssay AID248 (DTP/NCI, 2004).
Several values for one entry are separate records, joined by “and”; a condition that tells them apart may be missing. Identical values can stand only once. Toxic doses and inconclusive results are not listed. Cut-off read from the data, not from the text of the source: active = T/C of 150% or more; inactive = T/C below 125%.

System: L1210 leukemia ip in BDF1 mice, survival T/C
Experiment: NCI In Vivo Anticancer Drug Screen. Data for tumor model L1210 Leukemia (intraperitoneal) in B6D2F1 (BDF1) mice
Conditions: endpoint: mean survival time, higher = longer survival
In short: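 Each compound was tested against a transplantable tumor grown in mice. The endpoint was survival, with treated animals benchmarked against vehicle controls as a simple ratio.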

[1] = dose: 100.0 mg/kg/injection, schedule: Q04DX003 (ip), vehicle: Klucel (hydroxypropylcellulose) (HPC)
[2] = dose: 100.0 mg/kg/injection, schedule: Q01DX009 (ip), vehicle: saline with Tween-80
[3] = dose: 200.0 mg/kg/injection, schedule: Q01DX009 (ip), vehicle: saline with Tween-80
[4] = dose: 400.0 mg/kg/injection, schedule: Q01DX009 (ip), vehicle: saline with Tween-80
[5] = dose: 100.0 mg/kg/injection, schedule: Q04DX003 (ip), vehicle: saline with Tween-80
[6] = dose: 200.0 mg/kg/injection, schedule: Q04DX003 (ip), vehicle: saline with Tween-80
[7] = dose: 400.0 mg/kg/injection, schedule: Q04DX003 (ip), vehicle: saline with Tween-80
[8] = dose: 100.0 mg/kg/injection, schedule: Q04DX002 (ip), vehicle: saline with Tween-80
[9] = dose: 200.0 mg/kg/injection, schedule: Q04DX002 (ip), vehicle: saline with Tween-80
[10] = dose: 100.0 mg/kg/injection, schedule: Q01DX001 (ip), vehicle: saline
[11] = dose: 100.0 mg/kg/injection, schedule: Q01DX009 (ip), vehicle: Klucel (hydroxypropylcellulose) (HPC)

Measured: T/C

CC1(C)CC(=O)c2c(cc3oc(=O)ccc3c2O)O1
inactive: [1] 102 % of control | dose: 200.0 mg/kg/injection, schedule: Q04DX003 (ip), vehicle: Klucel (hydroxypropylcellulose) (HPC) 105 % of control | dose: 400.0 mg/kg/injection, schedule: Q04DX003 (ip), vehicle: Klucel (hydroxypropylcellulose) (HPC) 98 % of control

CCCP(=S)(CCC)CCC
inactive: dose: 100.0 mg/kg/injection, schedule: Q01DX001 (ip), vehicle: saline with Tween-80 103 % of control | dose: 200.0 mg/kg/injection, schedule: Q01DX001 (ip), vehicle: saline with Tween-80 94 % of control

O=C(O)CCCOc1ccc(Cl)cc1Cl
inactive: [2] 103 % of control | [3] 98 % of control | [4] 103 % of control

C1C[N+]2(CCO1)CC[N+]1(CCOCC1)CC2
inactive: dose: 100.0 mg/kg/injection, schedule: Q04DX002 (ip), vehicle: saline 104 % of control | dose: 200.0 mg/kg/injection, schedule: Q04DX002 (ip), vehicle: saline 96 % of control | dose: 400.0 mg/kg/injection, schedule: Q04DX002 (ip), vehicle: saline 100 % of control

CCCCN(c1ccccc1)c1ncnc2c1cnn2C
inactive: dose: 50.0 mg/kg/injection, schedule: Q01DX009 (ip), vehicle: saline with Tween-80 100 % of control | [2] 102 % of control and 104 % of control | [5] 97 % of control | [3] 98 % of control and 105 % of control | [6] 96 % of control | [7] 94 % of control

CN(C)C=C(S(C)(=O)=O)S(C)(=O)=O
inactive: dose: 75.0 mg/kg/injection, schedule: Q04DX003 (ip), vehicle: saline 97 % of control | dose: 100.0 mg/kg/injection, schedule: Q01DX009 (ip), vehicle: saline 101 % of control | dose: 150.0 mg/kg/injection, schedule: Q04DX003 (ip), vehicle: saline 97 % of control | dose: 200.0 mg/kg/injection, schedule: Q01DX009 (ip), vehicle: saline 109 % of control | dose: 300.0 mg/kg/injection, schedule: Q04DX003 (ip), vehicle: saline 101 % of control | dose: 400.0 mg/kg/injection, schedule: Q01DX009 (ip), vehicle: saline 98 % of control

Oc1ccc(CCCc2ccc3c(c2)OCO3)cc1
inactive: [8] 104 % of control | [9] 104 % of control

CCCCCCCCCCCCCCCC(=O)CCCCCCCCCCCCCCC
inactive: dose: 100.0 mg/kg/injection, schedule: Q01DX001 (ip), vehicle: other 94 % of control | dose: 200.0 mg/kg/injection, schedule: Q01DX001 (ip), vehicle: other 100 % of control | dose: 400.0 mg/kg/injection, schedule: Q01DX001 (ip), vehicle: other 97 % of control

O=C([O-])c1ccccc1[S+](c1ccccc1)c1ccccc1
inactive: dose: 18.0 mg/kg/injection, schedule: Q04DX002 (ip), vehicle: saline with Tween-80 104 % of control

CCOC(=O)CC(=O)c1ccccc1SC
inactive: [5] 102 % of control | [6] 100 % of control | [7] 91 % of control

CN(C)/C=C/c1nnc([N+](=O)[O-])s1
inactive: dose: 62.0 mg/kg/injection, schedule: Q04DX003 (ip), vehicle: Klucel (hydroxypropylcellulose) (HPC) 100 % of control | dose: 123.0 mg/kg/injection, schedule: Q04DX003 (ip), vehicle: Klucel (hydroxypropylcellulose) (HPC) 98 % of control | dose: 256.0 mg/kg/injection, schedule: Q04DX003 (ip), vehicle: Klucel (hydroxypropylcellulose) (HPC) 98 % of control | dose: 512.0 mg/kg/injection, schedule: Q04DX003 (ip), vehicle: Klucel (hydroxypropylcellulose) (HPC) 100 % of control

Cc1ccc(S(=O)(=O)OCC2Oc3ccccc3O2)cc1
inactive: dose: 75.0 mg/kg/injection, schedule: Q04DX003 (ip), vehicle: Klucel (hydroxypropylcellulose) (HPC) 93 % of control | dose: 150.0 mg/kg/injection, schedule: Q04DX003 (ip), vehicle: Klucel (hydroxypropylcellulose) (HPC) 107 % of control | dose: 300.0 mg/kg/injection, schedule: Q04DX003 (ip), vehicle: Klucel (hydroxypropylcellulose) (HPC) 100 % of control

CCCCNC(=O)C1CCC(CC2CCCCC2)CC1 (stereo not given)
inactive: [8] 90 % of control | [9] 105 % of control | dose: 400.0 mg/kg/injection, schedule: Q04DX002 (ip), vehicle: saline with Tween-80 94 % of control

COc1ccc(CCN2C(=O)C=CC2=O)cc1OC
inactive: dose: 5.0 mg/kg/injection, schedule: Q04DX003 (ip), vehicle: saline 97 % of control | dose: 10.0 mg/kg/injection, schedule: Q04DX003 (ip), vehicle: saline 96 % of control | dose: 20.0 mg/kg/injection, schedule: Q04DX003 (ip), vehicle: saline 100 % of control

C[C@@H]1CN1C1=CC(=O)C(N2C[C@H]2C)=CC1=O
inactive: dose: 6.25 mg/kg/injection, schedule: Q04DX003 (ip), vehicle: saline with Tween-80 117 % of control | dose: 12.5 mg/kg/injection, schedule: Q04DX003 (ip), vehicle: saline with Tween-80 117 % of control

CCN(CC)CCCC(C)Nc1ccnc(/C=C/c2ccc(Br)cc2)c1 (stereo not given)
inactive: dose: 25.0 mg/kg/injection, schedule: Q01DX009 (ip), vehicle: Klucel (hydroxypropylcellulose) (HPC) 98 % of control | dose: 25.0 mg/kg/injection, schedule: Q04DX003 (ip), vehicle: Klucel (hydroxypropylcellulose) (HPC) 108 % of control | dose: 50.0 mg/kg/injection, schedule: Q01DX009 (ip), vehicle: Klucel (hydroxypropylcellulose) (HPC) 106 % of control | dose: 50.0 mg/kg/injection, schedule: Q04DX003 (ip), vehicle: Klucel (hydroxypropylcellulose) (HPC) 108 % of control and 88 % of control | [10] 93 % of control | [11] 97 % of control | [1] 97 % of control

O=C1C2C(C(=O)N1c1ccccc1)C(c1ccccc1)N(c1ccccc1)C2c1ccccc1 (stereo not given)
inactive: dose: 50.0 mg/kg/injection, schedule: Q01DX001 (ip), vehicle: saline 103 % of control | [10] 108 % of control | dose: 200.0 mg/kg/injection, schedule: Q01DX001 (ip), vehicle: saline 100 % of control | dose: 400.0 mg/kg/injection, schedule: Q01DX001 (ip), vehicle: saline 103 % of control

O=S(=O)(O)CCN1CCOCC1
inactive: [11] 100 % of control | dose: 400.0 mg/kg/injection, schedule: Q01DX009 (ip), vehicle: Klucel (hydroxypropylcellulose) (HPC) 100 % of control

CCCC(O)(CCC)CC1=NC(C)(C)CO1
inactive: dose: 100.0 mg/kg/injection, schedule: Q04DX003 (ip), vehicle: saline sonified 87 % of control | dose: 200.0 mg/kg/injection, schedule: Q04DX003 (ip), vehicle: saline sonified 98 % of control | dose: 400.0 mg/kg/injection, schedule: Q04DX003 (ip), vehicle: saline sonified 95 % of control

COc1cc(OC)c2c(c1Cl)OC1(C(=O)C=CCC1C)C2=O (stereo not given)
inactive: [5] 98 % of control | [6] 104 % of control | [7] 96 % of control

CNC(=O)Nc1cc(C)ccc1Cl
inactive: dose: 50.0 mg/kg/injection, schedule: Q01DX009 (ip), vehicle: carboxymethylcellulose (CMC) 95 % of control and 89 % of control | dose: 87.5 mg/kg/injection, schedule: Q04DX003 (ip), vehicle: carboxymethylcellulose (CMC) 101 % of control | dose: 100.0 mg/kg/injection, schedule: Q01DX001 (ip), vehicle: carboxymethylcellulose (CMC) 94 % of control | dose: 100.0 mg/kg/injection, schedule: Q04DX002 (ip), vehicle: carboxymethylcellulose (CMC) 100 % of control and 117 % of control | dose: 175.0 mg/kg/injection, schedule: Q04DX003 (ip), vehicle: carboxymethylcellulose (CMC) 93 % of control | dose: 200.0 mg/kg/injection, schedule: Q01DX001 (ip), vehicle: carboxymethylcellulose (CMC) 92 % of control | dose: 200.0 mg/kg/injection, schedule: Q04DX002 (ip), vehicle: carboxymethylcellulose (CMC) 100 % of control and 102 % of control | dose: 350.0 mg/kg/injection, schedule: Q04DX003 (ip), vehicle: carboxymethylcellulose (CMC) 104 % of control | dose: 400.0 mg/kg/injection, schedule: Q01DX001 (ip), vehicle: carboxymethylcellulose (CMC) 94 % of control | dose: 400.0 mg/kg/injection, schedule: Q01DX009 (ip), vehicle: carboxymethylcellulose (CMC) 93 % of control | dose: 400.0 mg/kg/injection, schedule: Q04DX002 (ip), vehicle: carboxymethylcellulose (CMC) 93 % of control and 96 % of control

CCCCCC[P+](=O)CCCCCC
inactive: dose: 100.0 mg/kg/injection, schedule: Q04DX002 (ip), vehicle: gum acacia 97 % of control | dose: 200.0 mg/kg/injection, schedule: Q04DX002 (ip), vehicle: gum acacia 103 % of control

CCOC(=O)OCCCN(C)C
inactive: [2] 94 % of control | [5] 100 % of control | [3] 94 % of control | [6] 93 % of control | [4] 90 % of control | [7] 96 % of control
